Test results: patent US20230116972A1, “CD38 MODULATORS AND METHODS OF USE THEREOF” (Cytokinetics, Inc., priority 2021, published 2023)

Columns and labels:
[1] = molecular target: T1, endogenous CD38 in HL60 cells (Homo sapiens, UniProt P28907); test: cellular CD38 assay in HL60 cells (cellular NAD levels); assay type: cell-based; details: all-trans retinoic acid, 24 hours, read-out: hCD38 HL60 ATRA NAD Cell Diaphorase IC50
T1 construct: endogenous in cells; host or cells: HL60 (leukemic cells, treated with all-trans retinoic acid)
T1 sequence (P28907 1-300): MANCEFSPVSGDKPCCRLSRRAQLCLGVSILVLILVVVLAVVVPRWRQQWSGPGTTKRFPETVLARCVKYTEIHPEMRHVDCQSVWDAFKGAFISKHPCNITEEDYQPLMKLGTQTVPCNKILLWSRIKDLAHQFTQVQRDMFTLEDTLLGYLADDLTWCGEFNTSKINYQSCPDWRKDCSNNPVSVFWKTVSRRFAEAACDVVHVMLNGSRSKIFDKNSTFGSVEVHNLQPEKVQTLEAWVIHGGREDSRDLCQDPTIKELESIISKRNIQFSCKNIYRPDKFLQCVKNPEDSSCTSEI
Summary of the method: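 HL60 cells (20000/well) were treated with compound in DMSO for 24 h. Cellular NAD was then measured by an enzymatic cycling mix (alcohol dehydrogenase, diaphorase, 40 uM resazurin, 10 uM FMN, 3% ethanol, Triton X-100, pH 8.4).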

human CD38 = molecular target: T2, human CD38 (Homo sapiens, UniProt P28907); test: human recombinant CD38 enzyme assay (hydrolysis of NAD+); assay type: biochemical; details: human recombinant CD38, 0.4 nM enzyme, 62.5 μM NAD+; read-out: hCD38 BioChem IC50
T2 sequence (P28907 1-300): T1 sequence (P28907 1-300)
Summary of the method: (§1)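 Recombinant human or mouse CD38 hydrolyzing NAD+ in a cell-free buffered system. Dose-responses were run for 60 min at ambient temperature. Remaining NAD+ was converted to NADH by alcohol dehydrogenase, which drove diaphorase reduction of resazurin to resorufin, read at 540/590 nm.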

mouse CD38 = molecular target: T3, mouse CD38 (Mus musculus, UniProt P56528); test: mouse recombinant CD38 enzyme assay (hydrolysis of NAD+); assay type: biochemical; details: read-out: mCD38 BioChem IC50
T3 sequence (P56528 1-304): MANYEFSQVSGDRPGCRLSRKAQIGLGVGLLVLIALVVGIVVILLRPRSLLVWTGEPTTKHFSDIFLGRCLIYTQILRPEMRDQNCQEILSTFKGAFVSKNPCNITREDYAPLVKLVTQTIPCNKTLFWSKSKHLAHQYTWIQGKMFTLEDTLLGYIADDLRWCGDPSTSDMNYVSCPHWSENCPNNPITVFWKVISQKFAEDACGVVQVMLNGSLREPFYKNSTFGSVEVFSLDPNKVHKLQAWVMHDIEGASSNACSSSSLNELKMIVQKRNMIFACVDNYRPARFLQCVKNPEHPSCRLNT
Summary of the method: as §1

Compound | IC50 [1] | IC50 (human CD38) | IC50 (mouse CD38)
O=C(Nc1ccc(C(F)(F)F)nc1)c1nccc(-n2ccnc2)n1 [Compound 72, 4-(1H-imidazol-1-yl)-N-(6-(trifluoromethyl)pyridin-3-yl)pyrimidine-2-carboxamide] | 295 nM | 4 nM | 19 nM
Cn1cncc1-c1ccnc(C(=O)Nc2ccc(C(F)(F)F)nc2)n1 [Compound 74, 4-(1-methyl-1H-imidazol-5-yl)-N-(6-(trifluoromethyl)pyridin-3-yl)pyrimidine-2-carboxamide] | 349 nM | 3 nM | 10 nM
Cc1cc(-n2ccnc2)nc(C(=O)Nc2ccc(C(F)F)nc2)n1 [Compound 215, N-(6-(difluoromethyl)pyridin-3-yl)-4-(1H-imidazol-1-yl)-6-methylpyrimidine-2-carboxamide] | 214 nM | 2 nM | 1.6 nM
O=C(N[C@H]1CC[C@H](C(F)F)CC1)c1ccnc(-n2ccnc2)n1 [Compound 68, N-((1r,4r)-4-(difluoromethyl)cyclohexyl)-2-(1H-imidazol-1-yl)pyrimidine-4-carboxamide] | 1320 nM | 16 nM | 6 nM
O=C(Nc1ccc(F)c(F)c1)c1cccc(-n2ccnc2)n1 [Compound 34, N-(3,4-difluorophenyl)-6-(1H-imidazol-1-yl)picolinamide] | 509 nM | 4 nM | 6 nM
Cn1cncc1-c1cc(C(C)(C)C)nc(C(=O)Nc2ccc(C(F)F)nc2)n1 [Compound 189, 4-(tert-butyl)-N-(6-(difluoromethyl)pyridin-3-yl)-6-(1-methyl-1H-imidazol-5-yl)pyrimidine-2-carboxamide] | 8510 nM | 333 nM | 261 nM
CCO[C@H]1CC[C@H](NC(=O)c2nccc(-n3ccnc3)n2)CC1 [Compound 258, N-((1r,4r)-4-ethoxycyclohexyl)-4-(1H-imidazol-1-yl)pyrimidine-2-carboxamide] | 5580 nM | 71.6 nM | 36.4 nM
COc1cc(-c2cncn2C)nc(C(=O)Nc2ccc(C(F)(F)F)nc2)n1 [Compound 234, 4-methoxy-6-(1-methyl-1H-imidazol-5-yl)-N-(6-(trifluoromethyl)pyridin-3-yl)pyrimidine-2-carboxamide] | 557 nM | 2.4 nM | 1.4 nM
O=C(Nc1ccc(C(F)F)nc1)c1nc(C2CC2)cc(-n2ccnc2)n1 [Compound 205, 4-cyclopropyl-N-(6-(difluoromethyl)pyridin-3-yl)-6-(1H-imidazol-1-yl)pyrimidine-2-carboxamide] | 410 nM | 4 nM | 1.6 nM
O=C(NC12CC(C1)C2)c1cccc(-n2ccnc2)n1 [Compound 16, N-(bicyclo[1.1.1]pentan-1-yl)-6-(1H-imidazol-1-yl)picolinamide] | 7390 nM | 1510 nM | 760 nM
O=C(Nc1ccc(C(F)(F)F)nc1)c1cc(C2CCOCC2)nc(-n2ccnc2)n1 [Compound 196, 2-(1H-imidazol-1-yl)-6-(tetrahydro-2H-pyran-4-yl)-N-(6-(trifluoromethyl)pyridin-3-yl)pyrimidine-4-carboxamide] | 3190 nM | 25.4 nM | 19.3 nM
Cn1cncc1-c1nc(C(=O)Nc2ccc(C(F)(F)F)nc2)cc(C2(C)COC2)n1 [Compound 309, 2-(1-methyl-1H-imidazol-5-yl)-6-(3-methyloxetan-3-yl)-N-(6-(trifluoromethyl)pyridin-3-yl)pyrimidine-4-carboxamide] | 933 nM | 4.2 nM | 1.3 nM
Cc1cc(NC(=O)c2cccc(-c3cncs3)n2)ccn1 [Compound 52, N-(2-methylpyridin-4-yl)-6-(thiazol-5-yl)picolinamide] | 11400 nM | 678 nM | 292 nM
Cn1cncc1-c1nccc(C(=O)NC2CC3(C2)CC(F)(F)C3)n1 [Compound 82, N-(6,6-difluorospiro[3.3]heptan-2-yl)-2-(1-methyl-1H-imidazol-5-yl)pyrimidine-4-carboxamide] | 1080 nM | 10 nM | 3 nM
Cn1cncc1-c1nc(C(=O)NC23CC(C(C)(C)O)(C2)C3)cc(C2CCOCC2)n1 [Compound 292, N-(3-(2-hydroxypropan-2-yl)bicyclo[1.1.1]pentan-1-yl)-2-(1-methyl-1H-imidazol-5-yl)-6-(tetrahydro-2H-pyran-4-yl)pyrimidine-4-carboxamide] | 6610 nM | 21.4 nM | 7.1 nM
Cn1cncc1-c1ccnc(C(=O)N[C@H]2CC[C@H](C(F)F)CC2)n1 [Compound 75, N-((1r,4r)-4-(difluoromethyl)cyclohexyl)-4-(1-methyl-1H-imidazol-5-yl)pyrimidine-2-carboxamide] | 1360 nM | 41 nM | 19 nM
O=C(Nc1ccccc1)c1cc(-n2ccnc2)ccn1 [Compound 5, 4-(1H-imidazol-1-yl)-N-phenylpicolinamide] | 7820 nM | 313 nM | 420 nM
O=C(Nc1ccc(C(F)(F)F)nc1)c1cccc(-n2ccnc2)n1 [Compound 13, 6-(1H-imidazol-1-yl)-N-(6-(trifluoromethyl)pyridin-3-yl)picolinamide] | 568 nM | 6 nM | 8 nM
O=C(N[C@H]1C[C@H](c2ccc(F)cc2F)C1)c1nccc(-n2ccnc2)n1 [Compound 239, N-((1r,3r)-3-(2,4-difluorophenyl)cyclobutyl)-4-(1H-imidazol-1-yl)pyrimidine-2-carboxamide] | 3130 nM | 61.2 nM | 33.6 nM
COCCO[C@H]1CC[C@H](NC(=O)c2cc(C(F)(F)F)nc(-c3cncn3C)n2)CC1 [Compound 165, N-((1r,4r)-4-(2-methoxyethoxy)cyclohexyl)-2-(1-methyl-1H-imidazol-5-yl)-6-(trifluoromethyl)pyrimidine-4-carboxamide] | 2980 nM | 19 nM | 1 nM
O=C(N[C@H]1C[C@H](c2cccc(F)c2)C1)c1nccc(-n2ccnc2)n1 [Compound 237, N-((1r,3r)-3-(3-fluorophenyl)cyclobutyl)-4-(1H-imidazol-1-yl)pyrimidine-2-carboxamide] | 2200 nM | 33.8 nM | 29.5 nM
O=C(Nc1ccc(F)cc1F)c1cccc(-n2ccnc2)n1 [Compound 24, N-(2,4-difluorophenyl)-6-(1H-imidazol-1-yl)picolinamide] | 1660 nM | 104 nM | 45 nM
COCCO[C@H]1CC[C@H](NC(=O)c2cc(C)nc(-c3cncn3C)n2)CC1 [Compound 155, N-((1r,4r)-4-(2-methoxyethoxy)cyclohexyl)-6-methyl-2-(1-methyl-1H-imidazol-5-yl)pyrimidine-4-carboxamide] | 2300 nM | 24 nM | 1 nM
Cn1cncc1-c1nc(C(=O)N[C@H]2C[C@H](C(C)(C)O)C2)cc(C2CCOCC2)n1 [Compound 283, N-((1r,3r)-3-(2-hydroxypropan-2-yl)cyclobutyl)-2-(1-methyl-1H-imidazol-5-yl)-6-(tetrahydro-2H-pyran-4-yl)pyrimidine-4-carboxamide] | 5690 nM | 18.4 nM | 4.3 nM
O=C(Nc1ccc(C(F)(F)F)nc1)c1cncc(-n2ccnc2)n1 [Compound 55, 6-(1H-imidazol-1-yl)-N-(6-(trifluoromethyl)pyridin-3-yl)pyrazine-2-carboxamide] | 522 nM | 5 nM | 10 nM
O=C(N[C@H]1CC[C@H](C(F)F)CC1)c1ccnc(-c2cncs2)n1 [Compound 87, N-((1r,4r)-4-(difluoromethyl)cyclohexyl)-2-(thiazol-5-yl)pyrimidine-4-carboxamide] | 10100 nM | 562 nM | 138 nM
Cc1cc(-c2cncn2C)nc(C(=O)Nc2ccc(C(F)(F)F)nc2)n1 [Compound 235, 4-methyl-6-(1-methyl-1H-imidazol-5-yl)-N-(6-(trifluoromethyl)pyridin-3-yl)pyrimidine-2-carboxamide] | 376 nM | 3.8 nM | 1.6 nM
Cn1cncc1-c1cncc(C(=O)Nc2ccc(C(F)(F)F)nc2)n1 [Compound 90, 6-(1-methyl-1H-imidazol-5-yl)-N-(6-(trifluoromethyl)pyridin-3-yl)pyrazine-2-carboxamide] | 369 nM | 4 nM | 13 nM
